Test results reported in patent US20200277378A1, “COMBINATION THERAPIES” (Novartis AG, priority 2017, published 2020).
Structures can show the parent of a compound that is named as a salt.

Tests used:
[1] = Clinical study of PDR001 in combination with a CXCR2 inhibitor (DLT evaluation); format: in vivo, human; conditions: PDR001 400 mg Q4W + CXCR2 inhibitor 75 mg BID 2 weeks on/2 week off; seven patients dosed, two completed 56-day DLT period
Procedure: The primary objective of this study is to combine the PDR001 checkpoint inhibitor with the CXCR2 inhibitor, 6-chloro-3-((3,4-dioxo-2-(pentan-3-ylamino)cyclobut-1-en-1-yl)amino)-2-hydroxy-N-methoxy-N-methylbenzenesulfonamide choline salt, to identify the doses and schedule for combination therapy and to preliminarily assess the safety, tolerability, pharmacological and clinical activity of these combinations.
Patients are dosed on a flat scale and not by body weight or body surface area. Dosing of the CXCR2 inhibitor occurs immediately after completion of the PDR001 infusion during clinic visits. Patients are treated with 400 mg PDR001 every four weeks (i.e., Q4W). The CXCR2 inhibitor is administered orally twice daily, approximately 12 hours apart, with approximately 240 mL of water on an empty stomach at least 1 hour before or 2 hours after a meal, at about the same time every day. Patients are instructed not to chew the medication but to swallow it whole. The CXCR2 inhibitor is administered at a starting dose of 75 mg BID, two weeks on/two weeks off in each 28-day cycle or one week on/two weeks off in each 21-day cycle. If tolerated, the dose may be escalated to 150 mg BID two weeks on/two weeks off or one week on/two weeks off. […] Multiple dose levels below the MTD may be evaluated simultaneously in order to obtain PK and PD data across a range of doses and to establish the MTD/RDE. […]

[2] = system: neutrophils in whole human blood; experiment: rhGROα-induced neutrophil shape change in whole human blood; format: cell-based
[3] = system: neutrophils; experiment: rhGROα-induced neutrophil migration; format: cell-based
[4] = target: human CXCR2 receptor (Homo sapiens, UniProt P25025); conditions: membranes from CHO cells expressing human CXCR2 receptor
Chain of human CXCR2 receptor (P25025 whole entry): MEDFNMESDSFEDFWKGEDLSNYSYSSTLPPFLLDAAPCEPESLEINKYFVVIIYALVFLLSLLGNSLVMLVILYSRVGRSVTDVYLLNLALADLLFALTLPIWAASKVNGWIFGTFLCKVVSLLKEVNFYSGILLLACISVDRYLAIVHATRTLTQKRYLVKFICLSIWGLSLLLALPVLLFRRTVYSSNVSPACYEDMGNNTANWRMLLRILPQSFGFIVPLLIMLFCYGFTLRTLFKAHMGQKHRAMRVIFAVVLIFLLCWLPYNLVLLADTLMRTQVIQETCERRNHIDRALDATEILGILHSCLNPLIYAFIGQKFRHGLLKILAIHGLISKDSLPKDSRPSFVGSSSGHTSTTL

[5] = system: MC38 tumors; experiment: PD-L1 expression on tumor-infiltrating dendritic cells and macrophages in MC38 colon carcinoma mouse model; format: in vivo, C57BL/6 mice; conditions: combination BLZ945 200 mg/kg p.o. weekly + 5D12 10 mg/kg i.p. biweekly, day 9
Procedure: C57BL/6 mice (Charles River Laboratories) were implanted with 1×10^6 MC38 cells subcutaneously. When tumors were 70-100 mm3 in size, mice were randomized into groups of 8 animals and treated with an anti-TIM-3 antibody (5D12), a CSF-1R binding agent (BLZ945), both 5D12 antibody and BLZ945, or with vehicle control. Mice were dosed orally (p.o.) or intraperitoneally (i.p.). The groups of mice were dosed as follows:
Group 1) Vehicle p.o+antibody Isotype (mIgG1) i.p; Group 2) BLZ945 200 mg/kg p.o+antibody isotype (mIgG1) i.p; Group 3) Vehicle p.o+5D12 (mouse anti-TIM-3) 10 mg/kg i.p; Group 4) BLZ945 200 mg/kg p.o+5D12 (mouse anti-TIM-3) 10 mg/kg i.p. BLZ945 was dosed weekly and 5D12 was dosed biweekly.
At Day 9 post-treatment initiation, mice were sacrificed. Tumors were harvested and processed into single cell suspensions for analysis by flow cytometry. The single cell suspension was generated using a combination of dispase, collagenase and DNase 1. The tumor infiltrating immune cells were analyzed by flow cytometry. Samples were acquired on a BD Fortessa and data was analyzed using Flowjo. Populations were defined as follows: dendritic cells (CD45+CD11b+Ly6C-MHC-II+Ly6G-F480−) and macrophages (CD45+CD11b+Ly6C-MHC-II+Ly6G-F480+). Levels of PD-L1 expression were analyzed as the mean fluorescence intensity of signal in the PD-L1 channel. […]

[6] = system: PBMCs from whole blood activated by SEB; format: cell-based, human

## CCC(CC)Nc1c(Nc2ccc(Cl)c(S(=O)(=O)N(C)OC)c2O)c(=O)c1=O [6-chloro-3-((3,4-dioxo-2-(pentan-3-ylamino)cyclobut-1-en-1-yl)amino)-2-hydroxy-N-methoxy-N-methylbenzenesulfonamide choline salt]
[1]
  dose limiting toxicity (DLT): no patient has developed a DLT
[2]
  neutrophil shape change induced by rhGROα: dose-dependent inhibition
[3]
  rhGROα-induced neutrophil migration: dose-dependent inhibition
[4]
  GROα and IL-8-stimulated [35S]GTPγS binding: inhibits

## CNC(=O)c1cc(Oc2ccc3nc(N[C@@H]4CCCC[C@H]4O)sc3c2)ccn1 [BLZ945, 4-((2-(((1R,2R)-2-hydroxycyclohexyl)amino)benzo[d]thiazol-6-yl)oxy)-N-methylpicolinamide]
[5]
  PD-L1 expression (mean fluorescence intensity) in F480+ and F480- tumor-infiltrating cells: enhancement

## PDR001: anti-PD-1 antibody molecule (PD-1 inhibitor, Novartis), also known as Spartalizumab
[6]
  EC50 in SEB activation assay: 0.5 µg/mL
[6]; read-out: EC50 in SEB activation assay
  EC50: 3.68 nM
[1]
  dose limiting toxicity (DLT): no patient has developed a DLT

B1: LAG525: LAG-3 inhibitor (Novartis), anti-LAG-3 antibody molecule (antibody, chains of the INN, looked up, V domains shown)
VH: QVQLVQSGAEVKKPGASVKVSCKASGFTLTNYGMNWVRQARGQRLEWIGWINTDTGEPTYADDFKGRFVFSLDTSVSTAYLQISSLKAEDTAVYYCARNPPYYYGTNNAEAMDYWGQGTTVTVSS
VL: DIQMTQSPSSLSASVGDRVTITCSSSQDISNYLNWYLQKPGQSPQLLIYYTSTLHLGVPSRFSGSGSGTEFTLTISSLQPDDFATYYCQQYYNLPWTFGQGTKVEIK
[6]; increasing doses of LAG525 with fixed 0.5 ug/ml each of PDR001 and GWN323
  IL-2 production in the SEB assay on titration: dose-responsive production of IL-2
